Measured values from patent US11554131B2, “Mixture of HMOs for treating autoimmune diseases” (Glycom A/S, priority 2018, dated 2023).

What was measured:
[1] = NOD mouse model: short chain fatty acids in caecum content and serum; format: in vivo; conditions: NOD mice, 12 weeks; for acetate concentration in serum: compared to control animals
From the text: (§1) The mice are divided into four groups (n=8) with a control group receiving standard tap water, and the three treatment groups receiving supplementation with 2′-FL, mixture of 2′-FL and DFL (in a 4:1 ratio by weight), or 6′-SL in the drinking water, corresponding to a human daily dose of about 10 grams (calculated by metabolic rate and daily water consumption of NOD mice strains).
(§2) The mice receive the treatment for 12 weeks with bi-weekly water changes. From 12 weeks of age, the blood-glucose levels of the mice are checked weekly. Mice with blood-glucose levels above 7 mmol/l are closely monitored and euthanised (and excluded from the study) if their blood glucose levels increase to ≥12 mmol/l on two consecutive measurements.
(§3) After 12 weeks treatment the mice are euthanised, and the following are sampled; serum, pancreas, salivary glands, Haarderian lacrimal glands, extraorbital lacrimal glands, as well as caecum and colon content.
Caecum content and serum are used to measure the concentration of short chain fatty acids, namely acetate, propionate and butyrate. Faecal samples obtained at baseline together with colon content sampled after euthanasia are used for 16S rRNA genomic sequencing of the microbiota.

[2] = test system: non-obese diabetic (NOD) mouse model of diabetes and Sjögren's Syndrome; assay: NOD mouse model: histology of salivary and lacrimal glands and pancreas; format: in vivo; conditions: NOD mice, drinking water, 12 weeks, compared to control mice; for inflammation of the salivary and lacrimal glands (exocrine glands): corresponding to a human dose of about 10 g/day
From the text: The anti-inflammatory effect of HMOs is investigated in the non-obese diabetic (NOD) mouse model of diabetes and Sjögren's Syndrome.
as §1, §2, §3
The salivary and lacrimal glands are analysed by measuring the total area of inflammatory foci in relation to the total gland size on eight (salivary glands) and two (lacrimal glands) haematoxylin and eosin-stained paraffin-embedded sections per mouse. The pancreas is similarly analysed using histological sections scoring a minimum of 25 (preferably 50) islets of Langerhans for the degree of insulitis with a score ranging from 0-3 (0=no insulitis, 1=peri-insulitis, 2=infiltratory insulitis compromising ≤50% of the islet, 3=infiltratory insulitis compromising ≥50% of the islet).

Compound	acetate concentration in serum [1]	insulitis of the pancreas [2]	inflammation of the salivary and lacrimal glands (exocrine glands) [2]	acetate concentration in caecum [1]	concentration of caecum butyrate [1]
2′-fucosyllactose [2′-FL]	increases	reduced	reduce		
CC(=O)N[C@H]1[C@H]([C@H](O)[C@H](O)CO)O[C@@](OC[C@H]2O[C@@H](O[C@H]3[C@H](O)[C@@H](O)[C@H](O)O[C@@H]3CO)[C@H](O)[C@@H](O)[C@H]2O)(C(=O)O)C[C@@H]1O [6′-SL, 6′-sialyllactose]	increase	reduced	reduce	increase	increase
